# Laboratory results as given in patent US11673891B2, “Imidazopyrimidine compounds and uses thereof” (Dana-Farber Cancer Institute, Inc., priority 2017, dated 2023).
# Test system: human adult PBMCs
# Test: TNF production by ELISA after stimulation of human adult PBMCs
# Type: cell-based
# Conditions: adult PBMCs, 33 μM, 18 hours; for TNF (Median): ELISA, unit not given (FIG. 6B/7B legends: TNF concentration in ng/ml); for TNF (Median) / TNF % (Median): N=3-5; for Activity class: class according to TNF % as compared to R848; for TNF % (Median): median percentage TNF production as compared to R848
# Description: Table 1. Activity of Exemplary Imidazopyrimidine Compounds on Stimulating TNF Production in PBMCs as Compared to Compound R848 Table 1 provides the activity of exemplary compounds on stimulating TNF production in PBMCs as compared to the benchmark compound R848. Specifically, TNF production was measured by ELISA after stimulation of adult PBMCs with compound 037 analog family or the compound R848 at 33 μM for 18 hours. Analogs are ranked top to bottom by median percentage TNF production (TNF %) as compared to R848 (N=3-5). The compounds have been classified in the following categories according to TNF %: high activity—class A: TNF %>15%; medium activity—class B: 1%<TNF %≤15%; low activity—class C: TNF %≤1%.
# ELISAs and Multiplex-Analyte Assays. Supernatants derived from human PBMCs and DC stimulations were assayed by ELISA for TNF (ThermoFisher Scientific; Waltham, Mass., USA). Cytokine and chemokine expression profiles (e.g., IFNγ, IL-9, IL-10, IL-12 (p70), IL-13, IL-1β, IL-23, IL-27, IL-28A, IL-33, IL-6, MIP-3α/CCL20, and TNF) in cell culture supernatants were measured using a customized Milliplex® Human Th17 Magnetic Bead Panel according to the manufacturer's instructions (Millipore, Chicago, Ill., USA). Assays were read and analyzed on the Luminex® 100/200™ System and xPOTENT® software (Luminex, Austin, Tex.). A minimum threshold was set at the minimum detectable concentration for each individual assay, defined as three standard deviations above the mean background.
# PBMCs were isolated from blood using a Ficoll density gradient. PBMCs either used fresh or were stored at 5×10^7 cells per vial in 1 mL RPMI containing 20% autologous plasma and 10% DMSO at −80° C. until use. Stimulation plates were prepared by transferring 0.66 μl of DMSO-dissolved compounds (10 mM) to each well of a round bottom 96-well plate. PBMCs isolated from human adult donors were resuspended at a concentration of 10^5 cells/200 μl of RPMI supplemented with 10% of platelet-poor plasma. 200 μl of the cell suspension were transferred to each well resulting in a final compound concentration of […]. After about 18 hours of incubation (37° C., 5% CO2), plates were spun down (500×g, room temperature, 5 minutes) and supernatants were harvested for further analysis.
Compound,TNF (Median),Activity class,TNF % (Median) [%]
Cc1ccc(-c2cn3cccnc3n2)cc1NC(=O)c1ccccc1Br [Example 37.16],3.5625,A (high activity—class A: TNF %>15%),90.17
Cc1ccc(-c2cn3cccnc3n2)cc1NC(=O)c1ccccc1C [Example 37.17],0.865,A (high activity—class A: TNF %>15%),20.64
Cc1ccc(-c2cn3cccnc3n2)cc1NC(=O)c1ccccc1Cl [Example 37.33],0.288,A (high activity—class A: TNF %>15%),22.94
Cc1ccc(-c2cn3cccnc3n2)cc1NC(=O)c1ccccc1C(F)(F)F [Example 37.37],3.73,A (high activity—class A: TNF %>15%),71.12
Cc1ccc(-c2cn3cccnc3n2)cc1NC(=O)Cc1ccccc1 [FRF-02-103],0.008,C (low activity—class C: TNF %≤1%),0.18
Cc1ccc(-c2cn3cc(F)cnc3n2)cc1NC(=O)c1ccccc1Cl [FRF-02-115],0.0625,B (medium activity—class B: 1%<TNF %≤15%),2.42
Cc1ccc(-c2cn3cc(F)cnc3n2)cc1NC(=O)c1ccccc1Br [FRF-02-116],0.594,B (medium activity—class B: 1%<TNF %≤15%),8.48
Cc1ccc(-c2cn3cc(F)cnc3n2)cc1NC(=O)c1ccccc1C [FRF-02-117],0.138,B (medium activity—class B: 1%<TNF %≤15%),3.06
Cc1ccc(-c2cn3cc(F)cnc3n2)cc1NC(=O)c1ccccc1C(F)(F)F [FRF-02-118],1.8795,A (high activity—class A: TNF %>15%),43.53
"CCC(C(=O)Nc1cc(-c2cn3cc(F)cnc3n2)ccc1C)c1ccccc1 (stereo not drawn) [FRF-02-119, N-(5-(6-Fluoroimidazo[1,2-a]pyrimidin-2-yl)-2-methylphenyl)-2-phenylbutanamide]",0.219,B (medium activity—class B: 1%<TNF %≤15%),4.35
COc1cnc2nc(-c3ccc(C)c(NC(=O)c4ccccc4Cl)c3)cn2c1 [FRF-02-131],0.008,C (low activity—class C: TNF %≤1%),0.18
COc1cnc2nc(-c3ccc(C)c(NC(=O)c4ccccc4Br)c3)cn2c1 [FRF-02-132],0.008,C (low activity—class C: TNF %≤1%),0.18
COc1cnc2nc(-c3ccc(C)c(NC(=O)c4ccccc4C)c3)cn2c1 [FRF-02-134],0.008,C (low activity—class C: TNF %≤1%),0.18
COc1cnc2nc(-c3ccc(C)c(NC(=O)c4ccccc4C(F)(F)F)c3)cn2c1 [FRF-02-135],0.0705,B (medium activity—class B: 1%<TNF %≤15%),1.60
CCC(C(=O)Nc1cc(-c2cn3cc(OC)cnc3n2)ccc1C)c1ccccc1 (stereo not drawn) [FRF-02-137],0.04,B (medium activity—class B: 1%<TNF %≤15%),1.27
"CCC(C(=O)Nc1cc(-c2cn3cc(C)cnc3n2)ccc1C)c1ccccc1 (stereo not drawn) [FRF-02-144-1, N-(2-Methyl-5-(6-methylimidazo[1,2-a]pyrimidin-2-yl)phenyl)-2-phenylbutanamide]",3.144,A (high activity—class A: TNF %>15%),55.24
Cc1cnc2nc(-c3ccc(C)c(NC(=O)c4ccccc4Cl)c3)cn2c1 [FRF-02-144-2],2.5245,A (high activity—class A: TNF %>15%),104.32

Compound,TNF (Median),Activity class,TNF % (Median) [%]
Cc1cnc2nc(-c3ccc(C)c(NC(=O)Cc4ccccc4)c3)cn2c1 [FRF-02-162-1],0.008,C (low activity—class C: TNF %≤1%),0.42
Cc1cnc2nc(-c3ccc(C)c(NC(=O)c4ccccc4C)c3)cn2c1 [FRF-02-162-2],0.309,B (medium activity—class B: 1%<TNF %≤15%),6.34
Cc1ccc(-c2cn3cc(F)cnc3n2)cc1NC(=O)c1cc(F)ccc1C(F)(F)F [FRF-02-166],2.0745,A (high activity—class A: TNF %>15%),53.91
Cc1ccc(-c2cn3cc(F)cnc3n2)cc1NC(=O)c1ccc(F)cc1C(F)(F)F [FRF-02-167],1.101,A (high activity—class A: TNF %>15%),51.62
Cc1ccc(-c2cn3cc(F)cnc3n2)cc1NC(=O)c1ccc(Cl)cc1C(F)(F)F [FRF-02-169],0.008,C (low activity—class C: TNF %≤1%),0.18
Cc1ccc(C(=O)Nc2cc(-c3cn4cc(F)cnc4n3)ccc2C)c(C(F)(F)F)c1 [FRF-02-171],2.1615,A (high activity—class A: TNF %>15%),65.93
CCC(C(=O)Nc1cc(-c2cn3cc(C)cnc3n2)ccc1Cl)c1ccccc1 (stereo not drawn) [FRF-02-174-1],0.924,A (high activity—class A: TNF %>15%),35.71
Cc1cnc2nc(-c3ccc(Cl)c(NC(=O)c4ccccc4C(F)(F)F)c3)cn2c1 [FRF-02-174-2],0.1455,B (medium activity—class B: 1%<TNF %≤15%),13.99
Cc1ccc(-c2cn3cc(F)cnc3n2)cc1NC(=O)c1c(F)cccc1C(F)(F)F [FRF-02-175],0.063,B (medium activity—class B: 1%<TNF %≤15%),1.43
COc1ccc(C(=O)Nc2cc(-c3cn4cc(F)cnc4n3)ccc2C)c(C)c1 [FRF-02-176],0.087,B (medium activity—class B: 1%<TNF %≤15%),3.81
COc1ccc(C(=O)Nc2cc(-c3cn4cccnc4n3)ccc2C)c(C)c1 [FRF-02-182],0.008,C (low activity—class C: TNF %≤1%),0.39
COc1ccc(C)c(C(=O)Nc2cc(-c3cn4cccnc4n3)ccc2C)c1 [FRF-02-183],0.008,C (low activity—class C: TNF %≤1%),0.77
COc1ccc(C)c(C(=O)Nc2cc(-c3cn4cc(F)cnc4n3)ccc2C)c1 [FRF-02-187],1.191,A (high activity—class A: TNF %>15%),31.32
Cc1ccc(-c2cn3cccnc3n2)cc1NC(=O)C(CO)c1ccccc1 (stereo not drawn) [FRF-02-193],2.997,A (high activity—class A: TNF %>15%),91.73
Cc1ccc(-c2cn3cc(F)cnc3n2)cc1NC(=O)C(CO)c1ccccc1 (stereo not drawn) [FRF-02-194],0.008,C (low activity—class C: TNF %≤1%),0.18
Cc1ccc(-c2cn3cc(F)cnc3n2)cc1NC(=O)C(C)c1ccccc1 (stereo not drawn) [FRF-03-081],0.3195,B (medium activity—class B: 1%<TNF %≤15%),7.51
Cc1ccc(-c2cn3cc(F)cnc3n2)cc1NC(=O)C(C)(C)c1ccccc1 [FRF-03-084-1],0.24,B (medium activity—class B: 1%<TNF %≤15%),6.00
